Results taken from patent US10881642B2, “Autophagy enhancer and use thereof” (Industry-Academic Cooperation Foundation, Yonsei University, priority 2016, dated 2021).

Tested on: primary peritoneal macrophages
Experiment: IL-1β ELISA / inflammasome activation in macrophages
Type: cell-based, C57BL/6 mice
Experimental: FIG. 5 is the results indicating the present compound MSL reduces the activation of inflammasome and enhances the function of mitochondria. FIG. 5A is the results of the experiment in which primary peritoneal macrophages were isolated and treated with palmitic acid, LPS and MSL and then the concentration of IL-beta was measured from the supernatant using ELISA. Error bars, S.D. **, P<0.01; ***, P<0.001, two-way ANOVA. […]
Screening of autophagy enhancer. […] Firefly luciferase was determined after mixing 5 μl of lysate with 25 μl of Luciferase Assay Reagent II. Renilla luciferase was then determined after further addition of 20 ul of Stop&Glo Reagent. […] Cytotoxicity was determined by the measurement of LDH release in cell culture media using the LDH kit (Roche), according to the protocol from the manufacturer. […] Imaging and image quantification. […] Formation of acidic vesicular organelles was quantitated by staining the cells with acridine orange (Invitrogen, 5 ug/ml, 10 min). […] Cells or tissues were solubilized in lysis buffer supplemented with protease and phosphatase inhibitors and protein concentration was measured by the Bradford method. Ten to 30 micrograms were loaded on 4-12% Bis-Tris gel (NUPAGE, Invitrogen) or 8-15% SDS-PAGE, transferred to PVDF membranes and analyzed by western blot using the ECL method (Pierce). […]

CSc1oc(-c2ccccc2)nc1S(=O)(=O)c1ccc(F)cc1 [MSL] was tested, and the “release of IL-1β measured by ELISA” value (PA in combination with LPS) was “significantly decreased” and the “caspase-1 cleavage and IL-1 β maturation (Western blot)” value (data not shown) was “decreased”.
